What was measured:
human α-thrombin = human α-thrombin (Homo sapiens, UniProt P00734); assay: In vitro assay for determining proteinase inhibition: human α-thrombin; format: biochemical; conditions: inhibitory activity against human thrombin, class symbols of Tables 1-3; 25° C., pH 7.4
Experimental: Assays of human α-thrombin and human trypsin were performed by the methods substantially as described in Thrombosis Research, Issue No. 70, page 173 (1993) by S. D. Lewis et al.
The assays were carried out at 25° C. in 0.05M TRIS buffer pH 7.4, 0.15M NaCl, 0.1% PEG. Trypsin assays also contained 1 mM CaCl2. In assays wherein rates of hydrolysis of a p-nitroanilide (pna) substrate were determined, a Thermomax 96-well plate reader was used was used to measure (at 405 nm) the time dependent appearance of p-nitroaniline. sar-PR-pna was used to assay human α-thrombin (Km =125 μM) and bovine trypsin (Km =125 μM). p-Nitroanilide substrate concentration was determined from measurements of absorbance at 342 nm using an extinction coefficient of 8270 cm^-1 M^-1.
In certain studies with potent inhibitors (Ki <10 nM) where the degree of inhibition of thrombin was high, a more sensitive activity assay was employed. In this assay the rate of thrombin catalyzed hydrolysis of the fluorogenic substrate Z-GPR-afc (Km =27 μM) was determined from the increase in fluorescence at 500 nm (excitation at 400 nm) associated with production of 7-amino-4-trifluoromethyl coumarin. Concentrations of stock solutions of Z-GPR-afc were determined from measurements of absorbance at 380 nm of the 7-amino-4-trifluoromethyl coumarin produced upon complete hydrolysis of an aliquot of the stock solution by thrombin.
Activity assays were performed by diluting a stock solution of substrate at least tenfold to a final concentration ≤0.1 Km into a solution containing enzyme or enzyme equilibrated with inhibitor. Times required to achieve equilibration between enzyme and inhibitor were determined in control experiments. Initial velocities of product formation in the absence (Vo) or presence of inhibitor (Vi) were measured. […]

thrombotic occlusion = assay: In vivo rat ferric chloride assay to measure thrombotic occlusions; design: species or system Male Sprague-Dawley rats; conditions: 10 μg/kg/min i.v. infusion from 60 min before 35% FeCl3 and 90 min after, 6 rats
Experimental: Studies of 3 (2-Phenylethylarnino)-6-methyl-1-(2-amino-6-following rat ferric chloride assay substantially as described in Thrombosis Research, No. 60, page 269(1990) by Kurtz et al were used to determine in vivo activity of the thrombin inhibitors of the invention. Male Sprague-Dawley rats (b)ody weights 200-350 grams) were anesthetized with dial-urethane solution (0.1 ml/100 gm body weight i.p.), and a lateral tail vein was cannulated with a 23 gauge needle connected to a 12 inch length of PE50 tubing. The tubing was attached to a 3-way valve by a tubing adapter. Saline (control) or test compound, as appropriate, was administered via the tail vein catheter. A tracheostomy was performed with a 0.75 inch length of PE205 tubing. The right carotid artery is exposed and a 1.3 mm diameter Doppler flow probe was placed on the vessel. Body temperature was maintained at 37° C. using a heat lamp.
6 rats were randomized to continuous intravenous infusions of saline or test compound administered via the tail vein. Test compound was administered at a rate of 10 μg/kg/min. Treatment infusions were initiated 60 min before the placement of a 3 mm square piece of Whatman No. 1 filter paper saturated with 35% FeCl3 onto the exposed carotid artery distal to the flow probe. […] Time to occlusion was defined as the time from application of FeCl3 to thrombotic occlusion of the vessel.

Ki (human α-thrombin) [nM]	Compound	efficacy in rat ferric chloride assay (thrombotic occlusion)	rats showing evidence of thrombotic occlusion (thrombotic occlusion)
< 1	CCNC(=O)COc1ccccc1CNC(=O)Cn1c(C)cnc(NCCc2ccccc2)c1=O [H, NHC2 H5]	–	–
≥ 1	Cc1nc(N)ccc1CNC(=O)Cn1c(C)cnc(NC(C)(C)Cc2ccccc2)c1=O [PhCH2 C(CH3)2]	–	–
≥ 1	CCNC(=O)COc1ccc(Cl)cc1CNC(=O)Cn1c(C)cnc(NC(C)(C)C)c1=O [t-C4 H9]	–	–
–	Cc1nc(N)ccc1CNC(=O)Cn1c(C)cnc(NCCc2ccccc2)c1=O [test compound]	fully efficacious	None of the rats treated with the test compound showed evidence of thrombotic occlusion
